Assay results from US7608577B2, “Peptidyl ketones as inhibitors of DPIV” (OSI Pharmaceuticals, Inc., priority 2001, dated 2009).

Legend:
porcine DPIV = porcine DPIV (Sus scrofa, UniProt P22411); assay: Determination of IC50 values against DPIV; type: biochemical; details: Gly-Pro-pNA 0.4 mM, APN, 30° C., HEPES pH7.6, read-out: IC50
Method: (§1) 100 μl inhibitor stock solution was mixed with 100 μl buffer (HEPES pH7.6) and 20 μl diluted porcine DPIV and preincubated at 30° C. Reaction was started by addition of a mixture of 50 μl substrate (Gly-Pro-pNA, final concentration 0.4 mM) and 2 μl APN stock solution. Formation of the product pNA was measured at 405 nm and 30° C. over 10 min using the HTS 7000Plus plate reader (Perkin Elmer) and slopes were calculated. The final inhibitor concentrations ranged between 1 mM and 30 nM. For calculation of IC50 GraFit 4.0.13 (Erithacus Software) was used.

[1] = molecular target: T1, Acylamino acid-releasing enzyme (AARE) (Homo sapiens, UniProt P13798); assay: Cross reacting enzymes: AARE; type: biochemical; details: substrate Acetyl-Met-AMC, pH 7.2
T1 sequence (P13798 1-732): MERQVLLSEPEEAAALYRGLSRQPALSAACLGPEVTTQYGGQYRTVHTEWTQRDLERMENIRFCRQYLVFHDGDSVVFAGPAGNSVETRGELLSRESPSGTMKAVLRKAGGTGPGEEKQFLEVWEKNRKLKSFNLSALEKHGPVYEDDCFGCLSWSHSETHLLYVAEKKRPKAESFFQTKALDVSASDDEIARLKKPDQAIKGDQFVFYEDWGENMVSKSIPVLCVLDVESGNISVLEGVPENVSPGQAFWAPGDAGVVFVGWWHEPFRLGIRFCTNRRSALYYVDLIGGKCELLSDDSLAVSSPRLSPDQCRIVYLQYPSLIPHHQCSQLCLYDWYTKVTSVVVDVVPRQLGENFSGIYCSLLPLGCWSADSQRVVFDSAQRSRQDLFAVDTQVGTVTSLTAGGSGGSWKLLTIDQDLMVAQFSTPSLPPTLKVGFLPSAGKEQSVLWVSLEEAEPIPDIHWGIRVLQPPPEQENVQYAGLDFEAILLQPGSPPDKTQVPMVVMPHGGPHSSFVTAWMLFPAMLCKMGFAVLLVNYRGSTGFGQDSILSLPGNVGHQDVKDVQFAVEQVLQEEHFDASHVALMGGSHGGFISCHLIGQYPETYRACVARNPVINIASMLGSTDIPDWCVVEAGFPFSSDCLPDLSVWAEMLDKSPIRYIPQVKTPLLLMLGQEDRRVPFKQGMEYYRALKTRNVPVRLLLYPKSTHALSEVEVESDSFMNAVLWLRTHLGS
Method: The assay mixture was pre-incubated at 30° C. for 15 min. After pre-incubation, 50 μl Acetyl-Met-AMC solution (0.54 mM) was added. Release of the AMC was measured at 30° C. using a NOVOstar fluorescence microplate reader (BMG) and excitation/emission wavelengths of 380/460 nm.
The IC50-values were calculated from the slopes of the progress curves using Graphit 4.0.15 (Erithacus Software, Ltd., UK).

plasma DPIV activity = molecular target: T2, plasma DPIV activity (Rattus norvegicus, UniProt P14740); assay: DPIV inhibiting activity after intravasal and oral administration to Wistar rats; type: in vivo; details: 100 mg/kg; for In vivo DPIV-inhibition at tmax, i.v.: intra-vasal (intra-arterial); for In vivo DPIV-inhibition at tmax, p.o.: oral
T2 construct: from tissue; host or cells: plasma of Wistar rats
Method: Male Wistar rats (Shoe: Wist(Sho)) with a body weight ranging between 250 and 350 g were purchased from Tierzucht Schönwalde (Schönwalde, Germany).
Animals were single-caged under conventional conditions with controlled temperature (22±2° C.) on a 12/12 hours light/dark cycle (light on at 06:00 AM). Standard pelleted chow (ssniff® Soest, Germany) and tap water acidified with HCl were allowed ad libitum.
After ≧one week of adaptation at the housing conditions, catheters were implanted into the carotid artery of Wistar rats under general anaesthesia (i.p. injection of 0.25 ml/kg b.w. ROMPUN® [2%], BayerVital, Germany and 0.5 ml/kg b.w. Ketamin 10, Atarost GmbH & Co., Twistringen, Germany). The animals were allowed to recover for one week. The catheters were flushed with heparin-saline (100 IU/ml) three times per week. In case of catheter dysfunction, a second catheter was inserted into the contralateral carotid artery of the respective rat. After one week of recovery from surgery, this animal was reintegrated into the study. In case of dysfunction of the second catheter, the animal was withdrawn from the study. A new animal was recruited and the experiments were continued in the planned sequence, beginning at least 7 days after catheter implantation.
Rats with intact catheter function were administered placebo (1 ml saline, 0.154 mol/l) or test compound via the oral and the intra-vasal (intra-arterial) route. After overnight fasting, 100 μl samples of heparinised arterial blood were collected at −30, −5, and 0 min. The test substance was dissolved freshly in 1.0 ml saline (0.154 mol/l) and was administered at 0 min either orally via a feeding tube (75 mm; Fine Science Tools, Heidelberg, Germany) or via the intra-vasal route. In the case of oral administration, an additional volume of 1 ml saline was injected into the arterial catheter. In the case of intra-arterial administration, the catheter was immediately flushed with 30 μl saline and an additional 1 ml of saline was given orally via the feeding tube.
After application of placebo or the test substances, arterial blood samples were taken at 2.5, 5, 7.5, 10, 15, 20, 40, 60 and 120 min from the carotid catheter of the conscious unrestrained rats. All blood samples were collected into ice cooled Eppendorf tubes (Eppendorf-Netheler-Hinz, Hamburg, Germany) filled with 10 μl 1M sodium citrate buffer (pH 3.0) for plasma DPIV activity measurement. Eppendorf tubes were centrifuged immediately (12000 rpm for 2 min, Hettich Zentrifuge EBA 12, Tuttlingen; Germany): The plasma fractions were stored on ice until analysis or were frozen at −20° C. until analysis. […]
Statistical evaluations and graphics were performed with PRISM® 3.02 (GraphPad Software, Inc.). All parameters were analysed in a descriptive manner including mean and SD.

attractin = attractin (Homo sapiens, UniProt O75882); assay: Inhibition of DPIV-like enzymes: attractin; type: biochemical; details: inhibitor 1 mM to 30 nM, Gly-Pro-pNA 0.4 mM, APN
Method: as §1, with “attractin” for “porcine DPIV”, “IC50 values,” for “IC50”

T2 sequence (P14740 38-767 limits assumed): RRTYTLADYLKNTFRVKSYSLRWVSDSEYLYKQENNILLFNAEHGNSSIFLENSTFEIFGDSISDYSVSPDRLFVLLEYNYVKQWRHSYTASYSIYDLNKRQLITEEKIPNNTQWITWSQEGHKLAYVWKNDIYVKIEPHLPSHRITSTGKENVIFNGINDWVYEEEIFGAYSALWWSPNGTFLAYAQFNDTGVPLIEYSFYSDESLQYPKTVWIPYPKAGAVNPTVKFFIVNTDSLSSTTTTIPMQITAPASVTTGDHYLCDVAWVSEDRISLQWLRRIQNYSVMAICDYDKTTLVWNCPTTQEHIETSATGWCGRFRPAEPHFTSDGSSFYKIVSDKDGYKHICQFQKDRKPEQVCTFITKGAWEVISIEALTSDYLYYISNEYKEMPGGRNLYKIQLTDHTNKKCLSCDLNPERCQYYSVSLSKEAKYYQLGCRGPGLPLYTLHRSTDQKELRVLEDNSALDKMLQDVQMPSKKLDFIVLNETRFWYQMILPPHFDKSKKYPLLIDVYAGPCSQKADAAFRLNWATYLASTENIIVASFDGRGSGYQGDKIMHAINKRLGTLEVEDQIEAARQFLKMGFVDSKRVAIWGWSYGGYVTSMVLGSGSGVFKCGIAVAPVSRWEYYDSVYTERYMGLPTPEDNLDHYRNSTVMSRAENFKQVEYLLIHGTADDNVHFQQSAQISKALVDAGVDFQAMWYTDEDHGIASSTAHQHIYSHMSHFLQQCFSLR
Chain of porcine DPIV (P22411 whole entry): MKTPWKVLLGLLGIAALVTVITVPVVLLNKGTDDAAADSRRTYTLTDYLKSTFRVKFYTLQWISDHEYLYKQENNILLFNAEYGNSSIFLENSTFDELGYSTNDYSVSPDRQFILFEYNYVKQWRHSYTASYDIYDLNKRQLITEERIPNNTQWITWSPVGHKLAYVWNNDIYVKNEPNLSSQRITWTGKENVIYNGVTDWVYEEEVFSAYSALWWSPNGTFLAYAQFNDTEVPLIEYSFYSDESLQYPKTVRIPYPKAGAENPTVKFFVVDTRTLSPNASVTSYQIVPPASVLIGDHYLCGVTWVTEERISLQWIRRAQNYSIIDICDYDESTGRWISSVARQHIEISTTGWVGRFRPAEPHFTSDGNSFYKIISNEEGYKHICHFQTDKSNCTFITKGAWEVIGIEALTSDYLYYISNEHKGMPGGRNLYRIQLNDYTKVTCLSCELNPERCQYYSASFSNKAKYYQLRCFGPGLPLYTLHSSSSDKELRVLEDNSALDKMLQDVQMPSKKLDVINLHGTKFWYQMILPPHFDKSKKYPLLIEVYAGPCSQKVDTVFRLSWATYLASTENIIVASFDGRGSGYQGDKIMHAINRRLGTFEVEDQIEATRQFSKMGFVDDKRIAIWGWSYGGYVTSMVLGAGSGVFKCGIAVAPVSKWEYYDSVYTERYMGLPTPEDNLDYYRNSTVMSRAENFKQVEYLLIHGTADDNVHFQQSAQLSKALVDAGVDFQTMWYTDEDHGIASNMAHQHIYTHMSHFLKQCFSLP
Chain of attractin (O75882 84-1429, species assumed): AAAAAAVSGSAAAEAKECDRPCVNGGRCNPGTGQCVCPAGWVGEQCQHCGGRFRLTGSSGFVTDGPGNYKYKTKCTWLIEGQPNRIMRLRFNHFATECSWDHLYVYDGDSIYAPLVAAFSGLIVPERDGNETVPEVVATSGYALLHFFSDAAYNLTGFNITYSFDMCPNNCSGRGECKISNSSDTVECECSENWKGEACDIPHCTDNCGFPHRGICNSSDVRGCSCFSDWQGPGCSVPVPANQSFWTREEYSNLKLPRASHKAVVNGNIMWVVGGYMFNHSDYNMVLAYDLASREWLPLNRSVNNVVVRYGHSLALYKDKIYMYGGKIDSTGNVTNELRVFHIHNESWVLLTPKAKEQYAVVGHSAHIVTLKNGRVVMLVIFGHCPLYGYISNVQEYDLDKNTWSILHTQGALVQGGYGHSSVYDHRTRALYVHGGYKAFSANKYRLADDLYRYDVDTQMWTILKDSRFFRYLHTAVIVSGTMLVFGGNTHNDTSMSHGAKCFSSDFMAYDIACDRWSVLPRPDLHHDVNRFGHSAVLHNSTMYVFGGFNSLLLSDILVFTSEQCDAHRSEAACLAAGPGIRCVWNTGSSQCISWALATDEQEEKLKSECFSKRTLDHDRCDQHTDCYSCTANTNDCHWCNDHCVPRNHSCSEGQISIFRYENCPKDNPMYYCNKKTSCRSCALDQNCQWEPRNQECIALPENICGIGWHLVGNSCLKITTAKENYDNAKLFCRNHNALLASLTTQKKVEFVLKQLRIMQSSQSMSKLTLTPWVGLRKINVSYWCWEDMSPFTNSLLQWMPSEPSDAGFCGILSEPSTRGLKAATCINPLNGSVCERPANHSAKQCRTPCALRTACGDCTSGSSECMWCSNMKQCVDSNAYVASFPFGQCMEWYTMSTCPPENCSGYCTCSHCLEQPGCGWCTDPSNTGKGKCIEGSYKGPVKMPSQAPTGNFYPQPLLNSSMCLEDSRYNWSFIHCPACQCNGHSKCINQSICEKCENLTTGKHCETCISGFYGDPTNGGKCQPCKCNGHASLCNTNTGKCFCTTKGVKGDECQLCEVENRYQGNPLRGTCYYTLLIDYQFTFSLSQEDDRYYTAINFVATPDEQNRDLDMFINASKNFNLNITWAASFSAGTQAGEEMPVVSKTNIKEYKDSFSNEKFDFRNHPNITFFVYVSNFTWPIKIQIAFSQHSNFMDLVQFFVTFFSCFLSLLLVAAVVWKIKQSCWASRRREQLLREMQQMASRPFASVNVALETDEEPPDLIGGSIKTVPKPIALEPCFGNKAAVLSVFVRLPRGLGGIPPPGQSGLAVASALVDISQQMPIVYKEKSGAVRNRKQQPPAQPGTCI

IC50 (porcine DPIV)	AARE IC50 [1]	In vivo DPIV-inhibition at tmax, i.v. (plasma DPIV activity)	In vivo DPIV-inhibition at tmax, p.o. (plasma DPIV activity)	inhibition of attractin (attractin)	Compound
0.0102 µM	no inhibition	89%	87%	–	Br.CC(=O)OCC(=O)[C@@H]1CCCN1C(=O)[C@@H](NC(=O)[C@H](C)N)C(C)C [H-Ala-Val-Pro-CH2O—CO—CH3*HBr, 2-[(Acetyloxy-methyl)carbonyl]-1-N-[(L)-Alanyl-(L)-Valinyl]-(2S)-pyrrolidine hydrobromide]
–	no inhibition	95%	68%	–	Br.CC(C)[C@H](NC(=O)[C@H](C)N)C(=O)N1CCC[C@H]1C(=O)COC(=O)c1ccccc1 [H-Ala-Val-Pro-CO—CH2O—CO—Ph*HBr, 2-[(Benzoyloxy-methyl)carbonyl]-1-N-[{(L)-Alanyl}-(L)-Valinyl]-(2S)-pyrrolidine hydrobromide]
0.579 µM	no inhibition	–	–	No inhibition	Br.CC(=O)[C@@H]1CCCN1C(=O)[C@@H](NC(=O)[C@H](C)N)C(C)C [H-Ala-Val-Pro-Me*HBr, 2-Methylcarbonyl-1-N-[(L)-Alanyl-(L)-Valinyl]-(2S)-pyrrolidine hydrobromide]
